Assay results reported in PubChem BioAssay AID1918947 (Molecular Pharmacology Branch, DTP, NCI, 2023).

Test system: A498 complex spheroid viability
Assay: Anticancer human tumor A498 cell line growth inhibition;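 note: spheroids exposed to agents for seven days before readout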;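 for viability, T/C: 100% = DMSO vehicle-treated spheroids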
Conditions: for IC50: curve of first compound; for viability, T/C: stronger effect = lower value
Procedure, shortened: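 Multicellular complex spheroids of tumor cells with human endothelial cells (HUVEC) and mesenchymal stem cells; the LSD1 inhibitor iadademstat was combined with standard-of-care or investigational agents. Top concentration at or near clinical Cmax, half-log dilutions; final DMSO ≤0.25%.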

[1] = second compound 0.1 µM, first compound 0.00316 µM
[2] = second compound 0.1 µM, first compound 0.01 µM
[3] = second compound 0.1 µM, first compound 0.0316 µM
[4] = second compound 0.1 µM, first compound 0.1 µM
[5] = second compound 0.1 µM, first compound 0.316 µM
[6] = second compound 0.1 µM, first compound 1 µM
[7] = second compound 0.316 µM, first compound 0.00316 µM
[8] = second compound 0.316 µM, first compound 0.01 µM
[9] = second compound 0.316 µM, first compound 0.0316 µM
[10] = second compound 0.316 µM, first compound 0.1 µM
[11] = second compound 0.316 µM, first compound 0.316 µM
[12] = second compound 0.316 µM, first compound 1 µM
[13] = second compound 1 µM, first compound 0.00316 µM
[14] = second compound 1 µM, first compound 0.01 µM
[15] = second compound 1 µM, first compound 0.0316 µM
[16] = second compound 1 µM, first compound 0.1 µM
[17] = second compound 1 µM, first compound 0.316 µM
[18] = second compound 1 µM, first compound 1 µM
[19] = second compound 3.16 µM, first compound 0.00316 µM
[20] = second compound 3.16 µM, first compound 0.01 µM
[21] = second compound 3.16 µM, first compound 0.0316 µM
[22] = second compound 3.16 µM, first compound 0.1 µM
[23] = second compound 3.16 µM, first compound 0.316 µM
[24] = second compound 3.16 µM, first compound 1 µM
[25] = second compound 10 µM, first compound 0.00316 µM
[26] = second compound 10 µM, first compound 0.01 µM
[27] = second compound 10 µM, first compound 0.0316 µM
[28] = second compound 10 µM, first compound 0.1 µM
[29] = second compound 10 µM, first compound 0.316 µM
[30] = second compound 10 µM, first compound 1 µM

SMILES | IC50 (second compound 0.1 µM) [nM] | IC50 (second compound 0.316 µM) [nM] | IC50 (second compound 1 µM) [nM] | IC50 (second compound 3.16 µM) [nM] | IC50 (second compound 10 µM) [nM] | viability, T/C [1] [%] | viability, T/C [2] [%] | viability, T/C [3] [%] | viability, T/C [4] [%] | viability, T/C [5] [%] | viability, T/C [6] [%] | viability, T/C [7] [%] | viability, T/C [9] [%] | viability, T/C [10] [%] | viability, T/C [15] [%] | viability, T/C [16] [%] | viability, T/C [21] [%] | viability, T/C [22] [%] | viability, T/C [27] [%] | viability, T/C [28] [%] | further results
O=C(C=Cn1cnc(-c2cc(C(F)(F)F)cc(C(F)(F)F)c2)n1)NNc1cnccn1 + NC1CC1c1ccc(-c2cccc(O)c2)cc1 | 11.8 | 9.73 | 9.22 | 6.36 | 7.24 | 69.8 | 50.3 | 40.5 | 29.3 | 25.2 | 19.3 | 72.2 | 37.5 | 28.8 | 37.1 | 28.4 | 34.8 | 26.8 | 36.5 | 31.8 | viability, T/C [8]: 47.7%; viability, T/C [11]: 25.8%; viability, T/C [12]: 20.1%; viability, T/C [13]: 70.9%; viability, T/C [14]: 46.9%; viability, T/C [17]: 27.8%; viability, T/C [18]: 20.7%; viability, T/C [19]: 61%; viability, T/C [20]: 41.9%; viability, T/C [23]: 27%; viability, T/C [24]: 22.3%; viability, T/C [25]: 61.3%; viability, T/C [26]: 43.8%; viability, T/C [29]: 24.1%; viability, T/C [30]: 21.6%
CC1COCCN1c1cc(-c2ccnn2C)c2ccnc(-c3ccn[nH]3)c2n1 (stereo not given) + NC1CC1c1ccc(-c2cccc(O)c2)cc1 | 30.9 | 29.8 | 36.8 | 28.4 | 31.5 | 104 | 88.1 | 48.2 | 23.6 | 16.9 | 11.8 | 108 | 45.8 | 25.3 | 55.5 | 22.8 | 45.8 | 23.3 | 49 | 24.8 | viability, T/C [8]: 94%; viability, T/C [11]: 18.1%; viability, T/C [12]: 13%; viability, T/C [13]: 105%; viability, T/C [14]: 87%; viability, T/C [17]: 17.7%; viability, T/C [18]: 12.3%; viability, T/C [19]: 109%; viability, T/C [20]: 85.5%; viability, T/C [23]: 15.6%; viability, T/C [24]: 12.9%; viability, T/C [25]: 91.9%; viability, T/C [26]: 80.3%; viability, T/C [29]: 16.3%; viability, T/C [30]: 11.4%
Cn1ncnc1C1c2n[nH]c(=O)c3cc(F)cc(c23)NC1c1ccc(F)cc1 (stereo not given) + NC1CC1c1ccc(-c2cccc(O)c2)cc1 | > 100 | > 100 | > 100 | > 100 | > 100 | 104 | 94.9 | 96.2 | 94.2 | – | – | 104 | 100 | 93.3 | 89.1 | 87.8 | 91.9 | 77.8 | 78.6 | 78.4 | viability, T/C (second compound 0.1 µM, first compound 0.000316 µM): 94.6%; viability, T/C (second compound 0.1 µM, first compound 0.001 µM): 97.7%; viability, T/C (second compound 0.316 µM, first compound 0.000316 µM): 103%; viability, T/C (second compound 0.316 µM, first compound 0.001 µM): 111%; viability, T/C [8]: 92.1%; viability, T/C (second compound 1 µM, first compound 0.000316 µM): 89.3%; viability, T/C (second compound 1 µM, first compound 0.001 µM): 93.3%; viability, T/C [13]: 96.4%; viability, T/C [14]: 84.6%; viability, T/C (second compound 3.16 µM, first compound 0.000316 µM): 87%; viability, T/C (second compound 3.16 µM, first compound 0.001 µM): 89.8%; viability, T/C [19]: 90.2%; viability, T/C [20]: 89%; viability, T/C (second compound 10 µM, first compound 0.000316 µM): 80.8%; viability, T/C (second compound 10 µM, first compound 0.001 µM): 86.6%; viability, T/C [25]: 91.3%; viability, T/C [26]: 87.3%
CC(C)c1c(-c2ccccc2)nc2c(C#N)c[nH]n2c1=O + NC1CCC(NC2CC2c2ccccc2)CC1 | > 10000 | > 10000 | > 10000 | > 10000 | > 10000 | – | – | 88.3 | 87.8 | 89.3 | 87.3 | – | 84 | 85.8 | 88.8 | 86.4 | 84 | 79.9 | 64 | 69.3 | viability, T/C (second compound 0.1 µM, first compound 3.16 µM): 91.3%; viability, T/C (second compound 0.1 µM, first compound 10 µM): 86.5%; viability, T/C [11]: 87%; viability, T/C [12]: 87.8%; viability, T/C (second compound 0.316 µM, first compound 3.16 µM): 82.7%; viability, T/C (second compound 0.316 µM, first compound 10 µM): 85%; viability, T/C [17]: 89.2%; viability, T/C [18]: 88.2%; viability, T/C (second compound 1 µM, first compound 3.16 µM): 86%; viability, T/C (second compound 1 µM, first compound 10 µM): 86.9%; viability, T/C [23]: 82.3%; viability, T/C [24]: 87.6%; viability, T/C (second compound 3.16 µM, first compound 3.16 µM): 83.8%; viability, T/C (second compound 3.16 µM, first compound 10 µM): 82.4%; viability, T/C [29]: 66.3%; viability, T/C [30]: 69.6%; viability, T/C (second compound 10 µM, first compound 3.16 µM): 66.4%; viability, T/C (second compound 10 µM, first compound 10 µM): 69.5%
